Laboratory results taken from patent publication US10099993B2, “Metabotropic glutamate receptor positive allosteric modulators (PAMS) and uses thereof” (Sanford-Burnham Medical Research Institute, priority 2014, dated 2018).

Experiments:
mGlu2 = mGlu2 (Rattus norvegicus (Rat), UniProt P31421); experiment: mGlu2 GIRK thallium flux assay; conditions: for EC50: read-out: mGlu2 PAM EC50, test compound, then EC20 glutamate […] later in the presence of thallium; for Emax: read-out: mGlu2 PAM Max;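 for all read-outs here: Cell-based assay, rate of fluorescence rise right after thallium plus agonist addition read on a kinetic imaging plate reader, normalized to vehicle and maximal agonist control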
mGlu3 = mGlu3 (Rattus norvegicus (Rat), UniProt P31422); experiment: mGlu3 GIRK thallium flux assay; conditions: for EC50: read-out: mGlu3 PAM EC50, test compound, then EC20 glutamate […] later in the presence of thallium; for Emax: read-out: mGlu3 PAM Max;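 for all read-outs here: kinetic fluorescence slope read shortly after thallium plus agonist addition, scaled between vehicle and maximal agonist control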
[1] = PAM mode, mean ± SEM, at least three experiments

Sequence of mGlu2 (P31421 19-872): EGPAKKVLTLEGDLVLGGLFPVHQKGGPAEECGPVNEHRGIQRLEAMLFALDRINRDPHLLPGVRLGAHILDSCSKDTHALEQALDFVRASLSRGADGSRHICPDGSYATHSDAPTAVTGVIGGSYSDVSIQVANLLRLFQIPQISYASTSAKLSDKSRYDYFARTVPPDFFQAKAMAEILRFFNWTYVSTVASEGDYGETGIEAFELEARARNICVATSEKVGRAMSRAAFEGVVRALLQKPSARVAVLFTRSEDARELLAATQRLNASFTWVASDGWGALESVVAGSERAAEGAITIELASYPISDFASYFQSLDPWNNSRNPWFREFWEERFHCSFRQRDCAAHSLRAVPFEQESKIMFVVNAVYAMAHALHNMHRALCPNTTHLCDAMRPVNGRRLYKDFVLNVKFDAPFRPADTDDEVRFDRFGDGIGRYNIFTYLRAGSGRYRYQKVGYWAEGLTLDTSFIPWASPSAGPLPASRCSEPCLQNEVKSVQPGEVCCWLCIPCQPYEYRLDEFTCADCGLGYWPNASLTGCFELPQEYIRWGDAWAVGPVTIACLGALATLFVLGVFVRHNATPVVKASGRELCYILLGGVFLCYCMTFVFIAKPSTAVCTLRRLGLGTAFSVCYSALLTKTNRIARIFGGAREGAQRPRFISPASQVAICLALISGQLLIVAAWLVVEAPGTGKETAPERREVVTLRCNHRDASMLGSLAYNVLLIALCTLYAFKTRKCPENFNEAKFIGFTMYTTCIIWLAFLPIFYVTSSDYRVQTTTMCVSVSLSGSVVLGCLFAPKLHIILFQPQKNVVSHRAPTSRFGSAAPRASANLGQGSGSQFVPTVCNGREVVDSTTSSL
Sequence of mGlu3 (P31422 23-879): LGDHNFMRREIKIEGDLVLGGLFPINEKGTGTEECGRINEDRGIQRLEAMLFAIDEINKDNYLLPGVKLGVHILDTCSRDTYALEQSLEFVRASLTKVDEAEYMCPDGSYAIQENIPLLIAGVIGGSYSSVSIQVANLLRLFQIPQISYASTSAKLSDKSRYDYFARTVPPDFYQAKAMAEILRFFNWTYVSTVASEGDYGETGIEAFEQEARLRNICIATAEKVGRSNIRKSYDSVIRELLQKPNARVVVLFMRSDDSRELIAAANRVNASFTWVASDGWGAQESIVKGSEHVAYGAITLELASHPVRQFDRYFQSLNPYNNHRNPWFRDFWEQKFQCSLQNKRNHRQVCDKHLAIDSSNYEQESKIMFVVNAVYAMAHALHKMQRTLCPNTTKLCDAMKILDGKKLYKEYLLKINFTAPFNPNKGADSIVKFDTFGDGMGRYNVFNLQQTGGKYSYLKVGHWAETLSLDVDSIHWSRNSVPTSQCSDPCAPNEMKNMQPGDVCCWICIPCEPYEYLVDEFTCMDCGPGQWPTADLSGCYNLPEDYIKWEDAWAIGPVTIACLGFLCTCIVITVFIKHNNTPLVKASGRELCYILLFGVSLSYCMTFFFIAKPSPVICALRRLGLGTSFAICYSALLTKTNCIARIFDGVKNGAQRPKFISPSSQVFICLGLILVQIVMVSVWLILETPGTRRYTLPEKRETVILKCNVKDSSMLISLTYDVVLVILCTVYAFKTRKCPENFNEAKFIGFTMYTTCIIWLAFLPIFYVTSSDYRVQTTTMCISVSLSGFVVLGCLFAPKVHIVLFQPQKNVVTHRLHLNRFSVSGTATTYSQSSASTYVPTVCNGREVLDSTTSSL

| SMILES | EC50 (mGlu2; [1]) [nM] | Emax (mGlu2) [%] | EC50 (mGlu3; PAM mode, mean ± SEM) [nM] | Emax (mGlu3) [%] | mGlu2 PAM Max (mGlu2; PAM mode, % Glutamate Max, mean ± SEM, at least three experiments) [%] | mGlu3 PAM Max (mGlu3; PAM mode, % Glutamate Max, mean ± SEM) [%] |
| --- | --- | --- | --- | --- | --- | --- |
| Cc1c(OCc2cccc(-c3cccc(C(=O)O)c3)c2)ccc(C(=O)CC(C)(C)C)c1O [compound 127, 3′-((4-(3,3-Dimethylbutanoyl)-3-hydroxy-2-methylphenoxy)methyl)-[1,1′-biphenyl]-3-carboxylic acid] | 219 ± 43 | 91.1 ± 2.6 | 343 ± 40 | 104 ± 2.4 | – | – |
| CC(=O)c1ccc(OCc2cccc(-c3cccc(C(=O)O)c3)c2)c(C)c1O [compound 128, 3′-((4-Acetyl-3-hydroxy-2-methylphenoxy)methyl)-[1,1′-biphenyl]-3-carboxylic acid] | 35 ± 13 | 57.9 ± 6.6 | 1290 ± 781 | 67.8 ± 8.7 | – | – |
| Cc1c(OCc2cccc(-c3cccc(C(=O)O)c3)c2)ccc(C(=O)CC2CCCC2)c1O [compound 129, 3′-((4-(2-Cyclopentylacetyl)-3-hydroxy-2-methylphenoxy)methyl)-[1,1′-biphenyl]-3-carboxylic acid] | 616 ± 217 | 97.5 ± 9 | 3560 ± 1940 | 94 ± 10.1 | – | – |
| CCCC(=O)c1ccc(OCc2cccc(-c3cccc(C(=O)O)c3)c2)c(C)c1O [compound 130, 3′-((4-Butyryl-3-hydroxy-2-methylphenoxy)methyl)-[1,1′-biphenyl]-3-carboxylic acid] | 142 ± 29 | 92.9 ± 10.7 | 1680 ± 753 | 81 ± 14.8 | – | – |
| Cc1c(OCc2cccc(-c3cccc(C(=O)O)c3)c2)ccc(C(=O)C(C)C)c1O [compound 131, 3′-((3-Hydroxy-4-isobutyryl-2-methylphenoxy)methyl)-[1,1′-biphenyl]-3-carboxylic acid] | 222 ± 82 | 83.2 ± 12.3 | 1750 ± 891 | 55 ± 24.4 | – | – |
| Cc1c(OCc2cccc(-c3ccc(C(=O)O)cc3)c2)ccc(C(=O)CC(C)(C)C)c1O [compound 132, 3′-((4-(3,3-Dimethylbutanoyl)-3-hydroxy-2-methylphenoxy)methyl)-[1,1′-biphenyl]-4-carboxylic acid] | 561 ± 63 | 90.5 ± 13.8 | 1640 ± 487 | 57.5 ± 20.9 | – | – |
| Cc1c(OCc2cccc(-c3ccc(Cl)c(C(=O)O)c3)c2)ccc(C(=O)CC(C)(C)C)c1O [compound 133, 4-Chloro-3′-((4-(3,3-dimethylbutanoyl)-3-hydroxy-2-methylphenoxy)methyl)-[1,1′-biphenyl]-3-carboxylic acid] | 433 ± 99 | 90.2 ± 4.1 | 1710 ± 888 | 70.9 ± 3.6 | – | – |
| COc1ccc(C(=O)O)cc1-c1cccc(COc2ccc(C(=O)CC(C)(C)C)c(O)c2C)c1 [compound 134, 3′-((4-(3,3-Dimethylbutanoyl)-3-hydroxy-2-methylphenoxy)methyl)-6-methoxy-[1,1′-biphenyl]-3-carboxylic acid] | 118 ± 2 | 89.6 ± 2.9 | 324 ± 94 | 76.4 ± 5.4 | – | – |
| Cc1c(OCc2cccc(-c3ccc(F)c(C(=O)O)c3)c2)ccc(C(=O)CC(C)(C)C)c1O [compound 135, 3′-((4-(3,3-Dimethylbutanoyl)-3-hydroxy-2-methylphenoxy)methyl)-4-fluoro-[1,1′-biphenyl]-3-carboxylic acid] | 208 ± 20 | 88.5 ± 3.8 | 587 ± 129 | 74.4 ± 5 | – | – |
| Cc1c(OCc2cccc(-c3cc(F)cc(C(=O)O)c3)c2)ccc(C(=O)CC(C)(C)C)c1O [compound 136, 3′-((4-(3,3-Dimethylbutanoyl)-3-hydroxy-2-methylphenoxy)methyl)-5-fluoro-[1,1′-biphenyl]-3-carboxylic acid] | 308 ± 40 | 93.3 ± 2.1 | 496 ± 86 | 77.4 ± 7.1 | – | – |
| Cc1c(OCc2cccc(-c3cccc(C(=O)O)c3)c2)ccc(C(=O)CC(C)C)c1O [compound 137, 3′-((3-Hydroxy-2-methyl-4-(3-methylbutanoyl)phenoxy)methyl)-[1,1′-biphenyl]-3-carboxylic acid] | 181 ± 28 | 85.8 ± 3.7 | 642 ± 151 | 76.8 ± 8 | – | – |
| Cc1c(OCc2cccc(-c3ccccc3C(=O)O)c2)ccc(C(=O)CC(C)(C)C)c1O [compound 138, 3′-((4-(3,3-Dimethylbutanoyl)-3-hydroxy-2-methylphenoxy)methyl)-[1,1′-biphenyl]-2-carboxylic acid] | 643 ± 137 | 42.1 ± 7.1 | > 10000 | 23.5 ± 4.6 | – | – |
| Cc1c(OCc2cccc(-c3cc(C(=O)O)ccc3F)c2)ccc(C(=O)CC(C)(C)C)c1O [compound 139, 3′-((4-(3,3-Dimethylbutanoyl)-3-hydroxy-2-methylphenoxy)methyl)-6-fluoro-[1,1′-biphenyl]-3-carboxylic acid] | 436 ± 84 | 88.2 ± 5.1 | 1100 ± 330 | 85.6 ± 5.5 | – | – |
| COc1ccc(-c2cccc(COc3ccc(C(=O)CC(C)(C)C)c(O)c3C)c2)cc1C(=O)O [compound 140, 3′-((4-(3,3-Dimethylbutanoyl)-3-hydroxy-2-methylphenoxy)methyl)-4-methoxy-[1,1′-biphenyl]-3-carboxylic acid] | 489 ± 73 | 86.1 ± 6.1 | 8410 ± 4840 | 67.2 ± 13.3 | – | – |
| Cc1c(OCc2cccc(-c3ccc(C(=O)O)c(Cl)c3)c2)ccc(C(=O)CC(C)(C)C)c1O [compound 141, 3-Chloro-3′-((4-(3,3-dimethylbutanoyl)-3-hydroxy-2-methylphenoxy)methyl)-[1,1′-biphenyl]-4-carboxylic acid] | 391 ± 103 | 67 ± 6.4 | 656 ± 265 | 54.9 ± 9.7 | – | – |
| Cc1c(OCc2ccc(-c3cccc(C(=O)O)c3)cc2)ccc(C(=O)CC(C)(C)C)c1O [compound 142, 4′-((4-(3,3-Dimethylbutanoyl)-3-hydroxy-2-methylphenoxy)methyl)-[1,1′-biphenyl]-3-carboxylic acid] | 3180 ± 626 | 97.1 ± 8.2 | 2200 ± 753 | 88.7 ± 9.5 | – | – |
| Cc1cc(-c2cccc(COc3ccc(C(=O)CC(C)(C)C)c(O)c3C)c2)ccc1C(=O)O [compound 143, 3′-((4-(3,3-Dimethylbutanoyl)-3-hydroxy-2-methylphenoxy)methyl)-3-methyl-[1,1′-biphenyl]-4-carboxylic acid] | 571 ± 138 | 87 ± 11.7 | 3060 ± 624 | 78.3 ± 21.1 | – | – |
| Cc1c(OCc2cccc(-c3ccc(O)c(C(=O)O)c3)c2)ccc(C(=O)CC(C)(C)C)c1O [compound 144, 3′-((4-(3,3-dimethylbutanoyl)-3-hydroxy-2-methylphenoxy)methyl)-4-hydroxy-[1,1′-biphenyl]-3-carboxylic acid] | 232 ± 16 | 59.6 ± 4 | 701 ± 176 | 46.9 ± 5.6 | – | – |
| Cc1c(OCc2cccc(-c3cccc(CC(=O)O)c3)c2)ccc(C(=O)CC(C)(C)C)c1O [compound 145, 2-(3′-((4-(3,3-dimethylbutanoyl)-3-hydroxy-2-methylphenoxy)methyl)-[1,1′-biphenyl]-3-yl)acetic acid] | 1360 ± 259 | 93.4 ± 11.4 | 3940 ± 1320 | 79.1 ± 15 | – | – |
| Cc1c(OCc2cccc(-c3cc(C(=O)O)cc([N+](=O)[O-])c3)c2)ccc(C(=O)CC(C)(C)C)c1O [compound 146, 3′-((4-(3,3-Dimethylbutanoyl)-3-hydroxy-2-methylphenoxy)methyl)-5-nitro-[1,1′-biphenyl]-3-carboxylic acid] | 564 ± 156 | 98.7 ± 5.9 | 2130 ± 812 | 74.5 ± 11.7 | – | – |
| Cc1c(OCc2cccc(-c3ccc(C(=O)O)cc3Cl)c2)ccc(C(=O)CC(C)(C)C)c1O [compound 147, 2-Chloro-3′-((4-(3,3-dimethylbutanoyl)-3-hydroxy-2-methylphenoxy)methyl)-[1,1′-biphenyl]-4-carboxylic acid] | 460 ± 158 | 98.6 ± 5.7 | 2280 ± 827 | 81.4 ± 9.7 | – | – |
| Cc1c(OCc2cccc(-c3cccc(C(=O)O)c3)c2)ccc(C(=O)CCC(C)(C)C)c1O [compound 148] | 2110 ± 215 | – | 2580 ± 272 | – | 100 ± 3.9 | 101.7 ± 2.7 |
| Cc1c(OCc2ccnc(-c3cccc(C(=O)O)c3)c2)ccc(C(=O)CC(C)(C)C)c1O [compound 149, 3-(4-((4-(3,3-Dimethylbutanoyl)-3-hydroxy-2-methylphenoxy)methyl)pyridin-2-yl)benzoic acid] | 230 ± 2 | 108 ± 1.2 | 203 ± 1 | 112 ± 3.8 | – | – |
| Cc1c(OCc2cncc(-c3cccc(C(=O)O)c3)c2)ccc(C(=O)CC(C)(C)C)c1O [compound 150, 3-(5-((4-(3,3-Dimethylbutanoyl)-3-hydroxy-2-methylphenoxy)methyl)pyridin-3-yl)benzoic acid] | 345 ± 2 | 107 ± 2.6 | 345 ± 9 | 107 ± 6.3 | – | – |
| Cc1c(OCc2cccc(-c3cccc(C#N)c3)c2)ccc(C(=O)CC(C)(C)C)c1O [compound 151, 3′-((4-(3,3-Dimethylbutanoyl)-3-hydroxy-2-methylphenoxy)methyl)-[1,1′-biphenyl]-3-carbonitrile] | > 10000 | 50.2 ± 7.4 | > 10000 | 35.5 ± 3.8 | – | – |
| Cc1c(OCc2cccc(-c3cccc(-c4nn[nH]n4)c3)c2)ccc(C(=O)CC(C)(C)C)c1O [compound 152, 1-(4-((3′-(2H-Tetrazol-5-yl)-[1,1′-biphenyl]-3-yl)methoxy)-2-hydroxy-3-methylphenyl)-3,3-dimethylbutan-1-one] | – | 103 ± 1.8 | – | 98.9 ± 3.7 | – | – |
| Cc1c(OCc2cc(-c3cccc(C(=O)O)c3)ccn2)ccc(C(=O)CC(C)(C)C)c1O [compound 153, 3-(2-((4-(3,3-Dimethylbutanoyl)-3-hydroxy-2-methylphenoxy)methyl)pyridin-4-yl)benzoic acid] | 209 ± 3 | 106 ± 3.9 | 158 ± 2 | 107 ± 5.5 | – | – |
| Cc1c(OCc2cccc(COc3ccc(C#N)cc3)c2)ccc(C(=O)CC2CCCC2)c1C [compound 154] | > 30000 | – | > 30000 | – | – | – |
